Source: patent US20140357582A1, “DESRHAMNOSYL ACTEOSIDE-CONTAINING OLIVE EXTRACT” (SUNTORY HOLDINGS LIMITED, priority 2012, published 2014)

Experiments:
SD (IGS) male rats = test: Blood antioxidative activity (FRAP and ORAC methods) in rats after oral administration; type: in vivo, rat; details: 5 mL/kg; for blood antioxidative activity after administration: 0.8 mM suspension in 0.5% CMC or olive oil, FRAP and ORAC, up to 24 hours
Method: The influence of DRA on blood antioxidative activity was evaluated using rats. The evaluation of blood antioxidative activity was performed using the FRAP and ORAC methods. The DRA and acteoside used in this evaluation were those prepared by the same procedures as in Example 2 and Preparation Example 2, respectively.
(§1) SD (IGS) male rats (6 weeks old) were purchased from Charles River Laboratories Japan, Inc. After the rats were acclimated to the test environment for one week, those rats which grew normally were subjected to testing. The rats were fasted overnight and divided into five groups each consisting of three rats. Rats were orally administered a 0.5% CMC solution (Group 1), a suspension of DRA in 0.5% CMC (0.8 mM) (Group 2), a suspension of purified acteoside in 0.5% CMC (0.8 mM) (Group 3), an olive oil solution (Nacalai Tesque, Inc.; Code No. 073-26) (Group 4), and a suspension of DRA in olive oil (0.8 mM) (Group 5), each at a dose of 5 mL/kg. Before administration and 0.5, 1, 3, 6, 9 and 24 hours after administration for Groups 1-3, or before administration and 1, 3, 6, 9 and 24 hours after administration for Groups 4-5, a blood sample was collected from the caudal vein in heparinized tube and was centrifuged (at 8,000 rpm for 10 min.) to obtain plasma sample. At a later date, plasma FRAP activity as well as the ORAC activity of the supernatants obtained after deproteinization with acetone were evaluated.

[1] = Absorption in the body: blood concentrations by LC-MS/MS after oral administration; type: in vivo, rat; details: rats; for Cmax: male, SD (IGS), rat, 4 µmol/kg, suspension in 0.5% CMC (0.8 mM), 5 mL/kg, pooled plasma, β-glucuronidase/arylsulphatase treated, read-out: maximum blood concentration (Cmax) of the administered compound itself
Method: as §1
Among the plasma samples collected for the determination of blood antioxidative activity in Example 5, some parts of those samples from Group 1 (a 0.5% CMC solution), Group 2 (a suspension of DRA in 0.5% CMC) and Group 3 (a suspension of acteoside in 0.5% CMC) were used to determine the blood concentrations of the respective samples after administration.
After equivalent amounts of the plasma samples from the three rats in each group were mixed and homogenized, 90 μL of a helix pomatia-derived β-glucuronidase/arylsulphatase/acetate buffer (pH 5.0) was added to 90 μL of the plasma mixture and incubation was conducted at 37° C. for one hour. After 900 μL of acetonitrile was added to terminate the reaction, 10 μL of an aqueous solution of 1% ascorbic acid and 10 μL of an internal standard solution were added, and the contents were mixed and centrifuged (at 15,000 rpm for 10 min.) to recover a supernatant. The recovered supernatant was concentrated under reduced pressure, dissolved again in 50% methanol, passed through a filter, and subjected to LC-MS/MS analysis to quantify acteoside, DRA, hydroxytyrosol, and coffeic acid. The amounts of acteoside, DRA, hydroxytyrosol, and coffeic acid were determined by the ratio of each of their peak areas to the peak area of hesperidin (Wako) used as an internal standard. The LC-MS/MS analysis conditions are shown below.

[2] = acteoside versus DRA; cited from earlier work
[3] = oral; cited from earlier work
[4] = suspension in 0.5% CMC, DRA versus acteoside

Row | Structure (SMILES) | blood antioxidative activity after administration (SD (IGS) male rats) | time of earlier peak of FRAP activity after administration (SD (IGS) male rats; DRA 0.8 mM, first of bimodal peaks) | time of later peak of FRAP activity after administration (SD (IGS) male rats; DRA 0.8 mM, second of bimodal peaks) | Cmax [1] | amount absorbed in the body relative to acteoside, by AUCs of coffeic acid [1, 4] | amount absorbed in the body relative to acteoside, by AUCs of hydroxytyrosol [1, 4] | in vitro antioxidative activity, comparison [2] | absorbability when orally ingested [3]
1 | O=C(C=Cc1ccc(O)c(O)c1)O[C@@H]1C(CO)OC(OCCc2ccc(O)c(O)c2)C(O)C1O (stereo partly shown) [DRA, desrhamnosyl acteoside] | apparent increase | 1 to 3 h | 9 h | < 1000 nM | about 13 times | about 3 times | – | –
2 | C[C@@H]1O[C@@H](O[C@@H]2[C@@H](O)[C@H](OCCc3ccc(O)c(O)c3)O[C@H](CO)[C@H]2OC(=O)/C=C/c2ccc(O)c(O)c2)[C@H](O)[C@H](O)[C@H]1O [acteoside] | little increase | – | – | < 1000 nM | – | – | more active than DRA | poor absorbability
